Data as given in article PMC11149339, “Necessity for higher teicoplanin doses in older adults: a multicenter prospective observational study in China” (BMC Geriatrics, 2024).
Like-named read-outs stand apart in the source and are kept apart here.

Key:
[1] = Therapeutic drug monitoring of teicoplanin concentration after drug withdrawal, LC-MS/MS; type: in vivo, human; conditions: for TDM Withdraw 8-14d (teicoplanin concentration): 8–14 days after last dose (withdrawal); for TDM Withdraw 8-14d (teicoplanin concentration) / TDM Withdraw 3d (teicoplanin concentration) / TDM Withdraw ≤ 7d (teicoplanin concentration) / TDM Withdraw ≥ 15d (teicoplanin concentration): median [IQR], LC-MS/MS; for TDM Withdraw 3d (teicoplanin concentration): 3 days after last dose (withdrawal); for TDM Withdraw ≤ 7d (teicoplanin concentration): ≤ 7 days after last dose (withdrawal); for TDM Withdraw ≥ 15d (teicoplanin concentration): ≥ 15 days after last dose (withdrawal); for patients with TDM 10–20 mg/L Withdraw ≥ 15d, N (%) / patients with TDM < 10 mg/L Withdraw ≥ 15d, N (%) / patients with TDM > 20 mg/L Withdraw ≥ 15d, N (%): ≥ 15 days after last dose
Protocol: Teicoplanin (Targocid, Sanofi, Dublin, Ireland) was administered intravenously for 30 min. The prescribed dose regimens were at the discretion of treating physicians, and the recommended regimens were not always followed.
Blood samples (5 mL) were collected from the elbow into ethylenediaminetetraacetic acid-containing Vacutainers® (Becton Dickinson, Milan, Italy) in the morning before teicoplanin administration and after drug withdrawal. Samples were promptly refrigerated and centrifuged at 2500 × g for 10 min before 2 mL of supernatant was preserved at -20 °C for subsequent analysis. Teicoplanin concentrations were determined using liquid chromatography-tandem mass spectrometry. The linear range of the method was 1.0–100.0 mg/L, and the lower limit of quantification was 1.0 mg/L. The relative standard deviation of intra- and inter-batch precision was ≤ 10%.
Teicoplanin concentrations were dynamically monitored. Concentrations at 3, ≤ 7, 8–14, and ≥ 15 days after the first dose and within 2 h of the next scheduled dose were recorded as TDM3d, TDM≤7d, TDM8-14d, and TDM≥15d, respectively. Concentrations at 3, ≤ 7, 8–14, and ≥ 15 days after the last teicoplanin dose (withdrawal) were recorded as TDMw3d, TDMw≤7d, TDMw8-14d, and TDMw≥15d. respectively (Fig. 1a). The Cmin target was ≥ 10 mg/L [6, 7, 23]; a concentration < 10 mg/L was considered suboptimal. Average TDM (TDMa) was defined as the mean Cmin after 3 days of treatment.

[2] = Nephrotoxicity (acute kidney injury) during teicoplanin treatment; type: in vivo, human
Excerpt: Patients with renal impairment at baseline were excluded. Nephrotoxicity was defined as acute renal impairment indicated by a serum creatinine increase of > 50% from baseline.

[3] = in vivo, cited from earlier work
Excerpt: There are few studies on the optimal dose regimen and target concentration of teicoplanin in older adults.

[4] = LR-A + MR-A (200 mg once daily, then 200 mg once daily)
[5] = LR-B + MR-A (400 mg once daily, then 200 mg once daily)
[6] = LR-C + MR-B (400 mg at 12-h intervals, then 400 mg once daily)
[7] = 8–14 days after last dose, LR-A + MR-A
[8] = 8–14 days after last dose, LR-B + MR-A
[9] = 8–14 days after last dose, LR-C + MR-B
[10] = LR-B + MR-B (400 mg once daily, then 400 mg once daily)
[11] = LR-C + MR-C (400 mg at 12-h intervals, then 400 mg twice daily)
[12] = 3 days after last dose, LR-A + MR-A
[13] = 3 days after last dose, LR-B + MR-A
[14] = 3 days after last dose, LR-B + MR-B
[15] = 3 days after last dose, LR-C + MR-B
[16] = 3 days after last dose, LR-C + MR-C
[17] = ≤ 7 days after last dose, LR-A + MR-A
[18] = ≤ 7 days after last dose, LR-B + MR-A
[19] = ≤ 7 days after last dose, LR-B + MR-B
[20] = ≤ 7 days after last dose, LR-C + MR-B
[21] = ≤ 7 days after last dose, LR-C + MR-C

Substance: Teicoplanin
- TDM Withdraw 8-14d (teicoplanin concentration) [1, 4]: 5.5[3.8,7.6] mg/L
- TDM Withdraw 8-14d (teicoplanin concentration) [1, 5]: 5.0[3.4,6.6] mg/L
- TDM Withdraw 8-14d (teicoplanin concentration) [1, 6]: 0[0,2.5] mg/L
- TDM Withdraw 8-14d (teicoplanin concentration) ([1]; all patients (N = 204)): 5.3[3.3,7.0] mg/L
- patients with TDM 10–20 mg/L Withdraw 8-14d, N (%) [1, 7]: 8(16.0)
- patients with TDM < 10 mg/L Withdraw 8-14d, N (%) [1, 7]: 42(84.0)
- patients with TDM > 20 mg/L Withdraw 8-14d, N (%) [1, 7]: 0
- patients with TDM 10–20 mg/L Withdraw 8-14d, N (%) [1, 8]: 7(14.6)
- patients with TDM < 10 mg/L Withdraw 8-14d, N (%) [1, 8]: 40(83.3)
- patients with TDM > 20 mg/L Withdraw 8-14d, N (%) [1, 8]: 1(2.1)
- patients with TDM 10–20 mg/L Withdraw 8-14d, N (%) [1, 9]: 0
- patients with TDM < 10 mg/L Withdraw 8-14d, N (%) [1, 9]: 4(100)
- patients with TDM > 20 mg/L Withdraw 8-14d, N (%) [1, 9]: 0
- patients having concentrations of 10–20 mg/L, TDMw8-14d ([1]; 8–14 days after last dose, all patients, 15 patients): 14.6%
- patients having concentrations exceeding 20 mg/L, TDMw8-14d ([1]; 8–14 days after last dose, all patients, one patient): 1.0%
- patients in whom the target concentration (≥ 10 mg/L) was achieved after withdrawal ([1]; 8–14 days after withdrawal, all patients): 15.6%
- TDM Withdraw 3d (teicoplanin concentration) [1, 4]: 11.1[8.2,16.5] mg/L
- TDM Withdraw 3d (teicoplanin concentration) [1, 5]: 9.6[7.2,13.8] mg/L
- TDM Withdraw 3d (teicoplanin concentration) [1, 10]: 16.3[9.4,20.2] mg/L
- TDM Withdraw 3d (teicoplanin concentration) [1, 6]: 8.4[5.3,11.7] mg/L
- TDM Withdraw 3d (teicoplanin concentration) [1, 11]: 12.4[7.9,15.6] mg/L
- TDM Withdraw 3d (teicoplanin concentration) ([1]; all patients (N = 204)): 10.6[7.9,15.6] mg/L
- patients with TDM 10–20 mg/L Withdraw 3d, N (%) [1, 12]: 7(53.8)
- patients with TDM < 10 mg/L Withdraw 3d, N (%) [1, 12]: 5(38.5)
- patients with TDM > 20 mg/L Withdraw 3d, N (%) [1, 12]: 1(7.7)
- patients with TDM 10–20 mg/L Withdraw 3d, N (%) [1, 13]: 6(42.9)
- patients with TDM < 10 mg/L Withdraw 3d, N (%) [1, 13]: 7(50.0)
- patients with TDM > 20 mg/L Withdraw 3d, N (%) [1, 13]: 1(7.1)
- patients with TDM 10–20 mg/L Withdraw 3d, N (%) [1, 14]: 3(60)
- patients with TDM < 10 mg/L Withdraw 3d, N (%) [1, 14]: 1(20)
- patients with TDM > 20 mg/L Withdraw 3d, N (%) [1, 14]: 1(20)
- patients with TDM 10–20 mg/L Withdraw 3d, N (%) [1, 15]: 2(25.0)
- patients with TDM < 10 mg/L Withdraw 3d, N (%) [1, 15]: 6(75.0)
- patients with TDM > 20 mg/L Withdraw 3d, N (%) [1, 15]: 0
- patients with TDM 10–20 mg/L Withdraw 3d, N (%) [1, 16]: 4(44.4)
- patients with TDM < 10 mg/L Withdraw 3d, N (%) [1, 16]: 4(44.4)
- patients with TDM > 20 mg/L Withdraw 3d, N (%) [1, 16]: 1(11.2)
- patients having concentrations of 10–20 mg/L, TDMw3d ([1]; 3 days after last dose, all patients, 22 patients): 44.9%
- patients having concentrations exceeding 20 mg/L, TDMw3d ([1]; 3 days after last dose, all patients, four patients): 8.2%
- patients in whom the target concentration (≥ 10 mg/L) was achieved after withdrawal ([1]; 3 days after withdrawal, all patients): 53.1%
- TDM Withdraw ≤ 7d (teicoplanin concentration) [1, 4]: 7.9[5.8,11.4] mg/L
- TDM Withdraw ≤ 7d (teicoplanin concentration) [1, 5]: 7.2[5.6,12.0] mg/L
- TDM Withdraw ≤ 7d (teicoplanin concentration) [1, 10]: 12.3[7.7,17.0] mg/L
- TDM Withdraw ≤ 7d (teicoplanin concentration) [1, 6]: 6.3[3.4,9.4] mg/L
- TDM Withdraw ≤ 7d (teicoplanin concentration) [1, 11]: 7.5[3.2,15.6] mg/L
- TDM Withdraw ≤ 7d (teicoplanin concentration) ([1]; all patients (N = 204)): 7.4[5.7,12.0] mg/L
- patients with TDM 10–20 mg/L Withdraw ≤ 7d, N (%) [1, 17]: 13(28.3)
- patients with TDM < 10 mg/L Withdraw ≤ 7d, N (%) [1, 17]: 30(65.2)
- patients with TDM > 20 mg/L Withdraw ≤ 7d, N (%) [1, 17]: 3(6.5)
- patients with TDM 10–20 mg/L Withdraw ≤ 7d, N (%) [1, 18]: 14(29.8)
- patients with TDM < 10 mg/L Withdraw ≤ 7d, N (%) [1, 18]: 31(66.0)
- patients with TDM > 20 mg/L Withdraw ≤ 7d, N (%) [1, 18]: 2(4.2)
- patients with TDM 10–20 mg/L Withdraw ≤ 7d, N (%) [1, 19]: 2(40)
- patients with TDM < 10 mg/L Withdraw ≤ 7d, N (%) [1, 19]: 2(40)
- patients with TDM > 20 mg/L Withdraw ≤ 7d, N (%) [1, 19]: 1(20)
- patients with TDM 10–20 mg/L Withdraw ≤ 7d, N (%) [1, 20]: 2(18.2)
- patients with TDM < 10 mg/L Withdraw ≤ 7d, N (%) [1, 20]: 9(81.8)
- patients with TDM > 20 mg/L Withdraw ≤ 7d, N (%) [1, 20]: 0
- patients with TDM 10–20 mg/L Withdraw ≤ 7d, N (%) [1, 21]: 2(22.2)
- patients with TDM < 10 mg/L Withdraw ≤ 7d, N (%) [1, 21]: 6(66.7)
- patients with TDM > 20 mg/L Withdraw ≤ 7d, N (%) [1, 21]: 1(11.1)
- patients having concentrations of 10–20 mg/L, TDMw≤7d ([1]; ≤ 7 days after last dose, all patients, 33 patients): 28.0%
- patients having concentrations exceeding 20 mg/L, TDMw≤7d ([1]; ≤ 7 days after last dose, all patients, seven patients): 5.9%
- patients in whom the target concentration (≥ 10 mg/L) was achieved after withdrawal ([1]; ≤ 7 days after withdrawal, all patients): 33.9%
- TDM Withdraw ≥ 15d (teicoplanin concentration) [1, 4]: 4.54[0,7.3] mg/L
- TDM Withdraw ≥ 15d (teicoplanin concentration) [1, 5]: 4.1[0,7.0] mg/L
- TDM Withdraw ≥ 15d (teicoplanin concentration) [1, 6]: 0[0,0] mg/L
- TDM Withdraw ≥ 15d (teicoplanin concentration) [1, 11]: 2.1[0,2.8] mg/L
- TDM Withdraw ≥ 15d (teicoplanin concentration) ([1]; all patients (N = 204)): 3.5[0,6.4] mg/L
- patients with TDM 10–20 mg/L Withdraw ≥ 15d, N (%) ([1]; LR-A + MR-A): 1(2.4)
- patients with TDM < 10 mg/L Withdraw ≥ 15d, N (%) ([1]; LR-A + MR-A): 41(97.6)
- patients with TDM > 20 mg/L Withdraw ≥ 15d, N (%) ([1]; LR-A + MR-A): 0
- patients with TDM 10–20 mg/L Withdraw ≥ 15d, N (%) ([1]; LR-B + MR-A): 4(10.5)
- patients with TDM < 10 mg/L Withdraw ≥ 15d, N (%) ([1]; LR-B + MR-A): 34(89.5)
- patients with TDM > 20 mg/L Withdraw ≥ 15d, N (%) ([1]; LR-B + MR-A): 0
- patients with TDM 10–20 mg/L Withdraw ≥ 15d, N (%) ([1]; LR-C + MR-B): 0
- patients with TDM < 10 mg/L Withdraw ≥ 15d, N (%) ([1]; LR-C + MR-B): 5(100)
- patients with TDM > 20 mg/L Withdraw ≥ 15d, N (%) ([1]; LR-C + MR-B): 0
- patients with TDM 10–20 mg/L Withdraw ≥ 15d, N (%) ([1]; LR-C + MR-C): 0
- patients with TDM < 10 mg/L Withdraw ≥ 15d, N (%) ([1]; LR-C + MR-C): 5(100)
- patients with TDM > 20 mg/L Withdraw ≥ 15d, N (%) ([1]; LR-C + MR-C): 0
- patients in whom the target concentration (≥ 10 mg/L) was achieved after withdrawal ([1]; ≥ 15 days after withdrawal, all patients): 5.5%
- patients in whom teicoplanin remained detectable ([1]; ≥ 15 days after withdrawal, lower limit of quantification 1.0 mg/L): two-thirds
- incidence of acute kidney injury (AKI) / nephrotoxicity ([2]; TDMa < 10 mg/L (5/52)): 9.6%
- incidence of acute kidney injury (AKI) / nephrotoxicity ([2]; TDMa = 10–20 mg/L (6/50)): 12.0%
- incidence of acute kidney injury (AKI) / nephrotoxicity ([2]; TDMa = 20–40 mg/L (4/18)): 22.2%
- incidence of acute kidney injury (AKI) / nephrotoxicity ([2]; all evaluable patients (15/120), serum creatinine increase > 50% from baseline): 12.5%
- average elimination half-life ([3]; human): 107 h
- half-life of teicoplanin ([3]; human): 71 to 80 h
- half-life of teicoplanin [3]: 71 to 163 h
